According to patent US6133313A, “Insecticidal avocadofurans and triolein” (The Regents of the University of California, priority 1998, dated 2000):
“Also recorded” adds a separate entry of the source.

Columns and labels:
[1] = system: S. exigua larvae; assay: toxicity of furan analogs of variable side chain length in diet assay; type: in vivo, Spodoptera exigua; settings: 5 μmoles g^-1 diet
Description: To determine the toxicity of avocadofurans and their furan analogs, five saturated furans of variable side chain lengths, namely 2-(tetradecyl)furan compound (20), 2-(pentadecyl)furan (1), 2-(hexadecyl)furan compound (21), 2-(heptadecyl)furan (4), and 2-(octadecyl)furan compound (22) were tested for their activity against S. exigua in diet assay. Diets for treatments were prepared at a concentration known to be insecticidal against S. exigua early instar of 5 μmoles g^-1 diet. To compare toxicity among furans, concentration in μmoles g^-1 diet were adjusted according to the molecular weights of individual furans.
Five saturated furans of variable side chain lengths: 2-(tetradecyl)furan (20), 2-(pentadecyl)furan (1), 2-(hexadecyl)furan (21), 2-(heptadecyl)furan (4), and 2-(octadecyl)furan (22) were tested for activity against S. exigua in diet bioassays. Treated diets were prepared at a concentration known to be insecticidal against S. exigua early instars (5 μmoles g^-1 diet). To compare toxicity among furans, concentrations in μmoles g^-1 of diet were used to compensate for their different molecular weights.
Each furan compound was transferred into a 50-ml polypropylene centrifuge tube (Fisher, Pittsburgh Pa.), added 2 ml of 0.1% Tween-80 solution (Fisher), homogenized with an ultrasonic homogenizer (Cole-Parmer, Chicago, Ill.), and artificial diet was added to produce a final weight of 15 g. The mixture was vortexed for 3 mm. Control diet was prepared by mixing 2 ml of Tween solution with 13 g of artificial diet to produce a final weight of 15 g. Control and treated diets were poured into 16-well bioassay trays (C-D International Inc., Pitman N.J.). One neonate was added per well. Trays were placed in an incubator set for conditions described previously. Twenty-four neonates were tested for each treatment. Each treatment was replicated four times (total of 96 larvae/treatment). Larval mortality and weight were recorded after 9 days.

[2] = system: Colletotrichum gloeosporioides; settings: in words; cited from earlier work
[3] = system: Bombyx mori L. larvae; settings: 4th instar, within 2 days; cited from earlier work
[4] = in words; cited from earlier work
[5] = system: Bacillus subtilis; settings: in words; cited from earlier work
[6] = system: Staphylococcus aureus; settings: in words; cited from earlier work
[7] = system: S. exigua larvae; assay: growth inhibition and mortality of synthetic avocadofurans and triolein in diet bioassay; type: in vivo, Spodoptera exigua; settings: 3,500 μg/g
[8] = system: S. exigua larvae; assay: as above; type: in vivo, Spodoptera exigua; design: key to GI (growth index): growth index calculated per J. Chem. Ecol. 19:1109 (1993), imax = 3; settings: for 7-d Instar / 7-d Larval Weight: mean ± SE
Description: S. exigua larvae were used in all experiments. Larvae were reared on artificial diet modified from U.S.D.A. Agric. Res. Serv., Prod. Res. Rep., 1208:1 (1969), and maintained at 28+2° C., 14:10; light:dark (L:D) photoperiod.
The colony was collected from Orange Co., Calif. and had new genetic material added within 12 months prior to the study. The age of the cohorts tested was standardized by using neonates within 12 hours of eclosion. All bioassays were maintained at 28+2° C. 75% relative humidity (RH), and at 14:10 (L:D) photoperiod with fluorescent lighting.
The insecticidal activity of the fractions was tested with artificial diet bioassays. Treated diets were prepared by transferring 750 μl of acetone solutions of each fraction (equivalent to 300 mg crude idioblast cell oil) into 50-ml polypropylene centrifuge tubes (Fisher, Pittsburgh Pa.), evaporating the acetone, adding 2 ml of 0.1% Tween-80 solution (Fisher), homogenizing with an ultrasonic homogenizer (Co le-Parmer, Chicago Ill.), and adding prepared diet to produce a final weight of 15 g containing the equivalent of 2% idioblast oil. The mixture was vortexed for 3 mm.
Control diet was prepared by mixing 2 ml of Tween solution and 13 g of artificial diet to produce a final weight of 15 g. Control and treated diets were poured into 24-well (15.9 mm diameter and 15.9 mm depth) bioassay trays (C-D International Inc., Pitman N.J.). One neonate was added per well, and trays were placed in an incubator under the previously described conditions. Twenty-four neonates were tested for each fraction and control. Mortality and larval weights were recorded after 7 days.
The effect of the synthetically produced avocado furan compounds (>95% purity) and commercially available triolein (Sigma, St. Louis, Mo.) were tested on larval growth and mortality of S exigua. Treated and control diet were prepared as previously described.
Six different compound concentrations, chosen on the basis of studies with the oil fractions, were evaluated for both 2-(pentadecyl)furan and 2-(heptadecyl)furan: 0 (control), 600, 750, 900, 1050, and 1200 μg/g. Also, six concentrations of triolein (subfraction 1-1-12) were tested: 0 (control), 7000, 8000, 9000, 10000, and 11000 μg/g.
Twenty-four neonates were used per treatment. Bioassays were conducted as described in Example 4, and replicated 4 times for each concentration (i.e., a total of 96 larvae were tested for each concentration). Larval weight, instar, and mortality were recorded after 7 days […].
(§1) EC (effective concentration) values were calculated by subtracting the mean larval weight for each treatment from the mean weight of the controls, and dividing by the mean weight of the controls. LC (lethal concentration) values were obtained using probit analysis as described in Probit Analysis (1971) Cambridge University Press, Cambridge, UK. GI (growth index) and RGI (relative growth index) values were calculated as described in J. Chem. Ecol., 19:1109 (1993), but using an imax of 3 (the stage attained by most control larvae after 7 d). Statistical comparisons were conducted using SuperAnova Abacus Concept Inc., Berkeley, Calif. (1989).

[9] = system: neonate S. exigua; assay: individual toxicity of avocadofurans and triolein in artificial diet; type: in vivo, Spodoptera exigua
Description: In this study, individual activity of avocadofurans was investigated quantitatively. For this purpose, eight concentrations of the avocadofurans (1) and (4) and triolein (8) were tested. Results are seen in FIG. 6.
Following pilot studies, eight concentrations of each were tested: 0, 0.5, 1, 1.5, 2, 2.5, 3, and 3.5 μmoles g^~1 diet. Also, five concentrations of triolein were tested: 0; 1,000; 2,000; 3,000; and 4,000 μg g^~1 diet. Because triolein was not compared to a structurally similar compound, a more standard dietary formulation of μg g-^1 was used rather than ^~ moles g^-1 in all triolein-treated bioassays.
Treated and control diet were prepared as described above. For each concentration the compounds were dissolved in 10 ml of Tween solution and mixed using an ultrasonic homogenizer. Untreated diet was added to make a total of 100 g and then vortexed for 3 mm. Control diet was prepared by mixing 10 ml of the Tween solution with 90 g of artificial diet to produce a final weight of 100 g. Control and treated diets were poured into 30 ml plastic cups. One neonate was placed in each cup and cups were held in an incubator. Fifteen larvae were tested at each concentration, and assays were replicated 4 times (total of 60 larvae/treatment). For each diet treatment, 9-d larval instar and weight, pupal weights, times to pupation, and larval mortality were recorded.
as §1

[10] = system: S. exigua; assay: synergistic/joint toxicity of avocadofuran and triolein combinations; type: in vivo, Spodoptera exigua
Description: The treatments were as follows: Control, 2-(pentadecyl)furan, 2-(heptadecyl)furan, triolein, individually, and 2-(pentadecyl)furan combined with 2-(heptadecyl)furan and triolein, 2-(pentadecyl)furan combined with triolein, and 2-(heptadecyl)furan combined with triolein. Because the combined LC25 s for both avocadofurans exceed their LC50 values, a concentration for each was adjusted so that when added it would approximate the value of the avocadofurans LC50 (see Table 2). These concentrations were used whenever both avocadofurans were combined in the same treatment. Treatments were replicated four times, with 15 larvae per replicate to a total of 60 larvae/treatment.
Joint effects were determined by testing all combinations of LC25 s (estimated from probit lines shown in Table 1) of the three compounds for toxicity to S. exigua. The treatments were: control, 2-(pentadecyl)furan, 2-(heptadecyl)furan, triolein, 2-(pentadecyl)furan+triolein, 2-(heptadecyl)furan+triolein, and 2-(pentadecyl)furan+2-(heptadecyl)furan+triolein. Because the combined LC25 s for both avocadofurans exceeded their LC50 values (due to a steep slope of their LC lines), a concentration for each was used so that when added together it would approximate the value of the avocadofurans LC50 (Table 1). These concentrations were used whenever both avocadofurans were combined in the same treatment.
Treatments were replicated four times, with 15 larvae per replicate (total of 60 larvae/treatment). Dietary treatment preparations and bioassay procedures were conducted as described in Example 4. For each diet treatment, 9-d larval instar and weight, pupal weights, times to pupation, and larval mortality were recorded.

[11] = lowest concentration vs controls

SMILES: CCCCCCCCCCCCCCc1ccco1 [2-(tetradecyl)furan]
- effect on mortality (FIG. 5A) ([1]; 9 d, in words): had the lowest activity
- effect on 9-day larval weight (FIG. 5B) ([1]; in words): significantly reducing larval weight compared to the control
- mortality at 5 µmol/g ([1]; Spodoptera exigua, feed or water, 216 h, 9 d, read-out: mortality of S. exigua larvae (FIG. 5A)): < 50%

SMILES: CCCCC/C=C\C/C=C\CCCCCCCC(=O)CC(O)COC(C)=O (single isomer, unassigned) [persin, 1-acetoxy-2-hydroxy-4-oxo-heneicosa-(12Z,15Z)-diene]
- antifungal activity [2]: antifungal activity
- concentration at which growth inhibited [3]: 200 µg/g

SMILES: CCCCCCCCCCCCCCCCCCc1ccco1 [2-(octadecyl)furan]
- effect on 9-day larval weight (FIG. 5B) ([1]; in words): comparable to the best compound described above, namely compound (1)

SMILES: C#CCCCCCCCCCCCC(O)CC(O)CO (stereo not shown) [1,2,4-trihydroxyheptadec-16-yne]
- fungicidal / antifungal activity [4]: antifungal activity

SMILES: CCCCCCCCCCCCCCCCc1ccco1 [2-(hexadecyl)furan]
- effect on 9-day larval weight (FIG. 5B) ([1]; in words): comparable to the best compound described above, namely compound (1)

SMILES: C#CCCCCCCCCCCCC(O)CC(O)COC(C)=O (stereo not shown) [1-acetoxy-2,4-dihydroxyheptadec-16-yne]
- fungicidal / antifungal activity [4]: antifungal activity

SMILES: C=CCCCCCCCCCCCC(O)CC(O)CO (stereo not shown) [1,2,4-trihydroxy-n-heptadec-16-ene]
- fungicidal / antifungal activity [4]: antifungal activity

SMILES: C=CCCCCCCCCCCCc1ccco1 [2-(trideca-12-enyl)furan]
- growth inhibitory activity [5]: growth inhibitory activity
- growth inhibitory activity [6]: growth inhibitory activity

SMILES: CCCCCCCCCCCCC/C=C/c1ccco1 [2-(1E-pentadecenyl)furan]
- reduction of larval growth compared to controls [7]: 57.3%
- mortality at 3500 µg/g ([8]; Spodoptera exigua, feed or water, 3,500 μg/g): 12.5%
- concentration at which S. exigua growth is inhibited / compound active ([8]; lowest active concentration, in diet): ≥ 3,500 μg/g

SMILES: C=CCCCCCCCCCCCC(O)CC(O)COC(C)=O (stereo not shown) [1-acetoxy-2,4-dihydroxy-n-heptadec-16-ene]
- fungicidal / antifungal activity [4]: active as a fungicide

SMILES: CCCCCCCCCCCCCCCc1ccco1 [2-(pentadecyl)furan (1), 2-(pentadecyl)furan]
- growth inhibition (FIG. 6A) ([9]; 1.5 μmoles g^-1 or higher, 9 d): more than 50%
- LC25 (95% FL) ([9]; avocadofurans, larval stage): 1.76(1.55-1.93) μmoles g^-1 of diet
- LC50 (95% FL) ([9]; avocadofurans, larval stage): 2.24(2.08-2.39) μmoles g^-1 of diet
- effect on pupal weight (FIG. 7) ([9]; in words): significantly reduced
- larval developmental time from neonate to pupa (FIG. 8) ([9]; in words): significantly prolonged
- Relative Growth Index (RGI) (FIG. 10) ([9]; in words, increasing concentrations): decreased with increasing concentrations
- LC50 ([9]; larval stage): 2.2 μmoles g^-1 diet
- concentration significantly reducing 9-day larval weight (FIG. 6A) [9, 11]: ≥ 1.5 µmol/g
- concentration significantly reducing pupal weight (FIG. 7A) [9, 11]: ≥ 3 µmol/g
- GI (growth index) ([8]; 600 μg/g): 0.69
- percent reduction in larval weight vs control ([8]; 600 μg/g): 72.89%
- 7-d Instar ([8]; 600 μg/g): 2.29 ± 0.07
- 7-d Larval Weight ([8]; 600 μg/g): 8.50 ± 0.95 mg
- GI (growth index) ([8]; 750 μg/g): 0.55
- percent reduction in larval weight vs control ([8]; 750 μg/g): 85.83%
- 7-d Instar ([8]; 750 μg/g): 2.04 ± 0.07
- 7-d Larval Weight ([8]; 750 μg/g): 4.44 ± 0.45 mg
- GI (growth index) ([8]; 900 μg/g): 0.26
- percent reduction in larval weight vs control ([8]; 900 μg/g): 90.35%
- 7-d Instar ([8]; 900 μg/g): 1.74 ± 0.07
- 7-d Larval Weight ([8]; 900 μg/g): 3.03 ± 0.35 mg
- GI (growth index) ([8]; 1050 μg/g): 0.25
- percent reduction in larval weight vs control ([8]; 1050 μg/g): 95.50%
- 7-d Instar ([8]; 1050 μg/g): 1.61 ± 0.07
- 7-d Larval Weight ([8]; 1050 μg/g): 1.41 ± 0.15 mg
- GI (growth index) ([8]; 1200 μg/g): 0.15
- percent reduction in larval weight vs control ([8]; 1200 μg/g): 95.78%
- 7-d Instar ([8]; 1200 μg/g): 1.56 ± 0.09
- 7-d Larval Weight ([8]; 1200 μg/g): 1.32 ± 0.19 mg
- mortality at 600 µg/g ([8]; Spodoptera exigua, feed or water, 168 h, 600 μg/g, 7 d): 9.37%
- mortality at 750 µg/g ([8]; Spodoptera exigua, feed or water, 168 h, 750 μg/g, 7 d): 18.8%
- mortality at 900 µg/g ([8]; Spodoptera exigua, feed or water, 168 h, 900 μg/g, 7 d): 32.3%
- mortality at 1050 µg/g ([8]; Spodoptera exigua, feed or water, 168 h, 1050 μg/g, 7 d): 54.2%
- mortality at 1200 µg/g ([8]; Spodoptera exigua, feed or water, 168 h, 1200 μg/g, 7 d): 71.9%
- reduction of larval development ([8]; concentrations above 600 μg/g): > 70%
- LC50 (95% FL) ([8]; in diet): 1031 µg/g
- inhibition of larval growth ([8]; in words): significantly inhibited larval growth
- comparative toxicity and growth inhibition ([8]; in words, listed as 1): more toxic and growth inhibitory to S. exigua than either of the unsaturated compounds (2) and (6); also recorded: the most toxic
- comparative toxicity and growth inhibition ([8]; in words, listed as 2-(pentadecyl)furan): most active of the two major compounds from that subfraction
- Relative Growth Index (RGI) vs log concentration regression (FIG. 4) ([8]; log (μg/g)): y=5.66-1.79*log(x), r^2 =0.94
- Mortality (%) using LC25 ([10]; in vivo): 36.7%
- Survival to pupation ([10]; in vivo): 63.3%
- Weight, 9-d larvae ([10]; mean ± spread): 22.4 ± 2.9 mg
- Weight, Pupae ([10]; mean ± spread): 104.3 ± 3.2 mg
- Developmental times ([10]; neonate-pupa, in d (unit assumed)): 19.8 ± 0.7
